Results taken from the NIST ThermoML archive (doi:10.1016/j.jct.2016.06.016).
± gives the expanded uncertainty stated by the source.

Assays:
[1] = 100 kPa, Liquid; for viscosity: Concentric cylinders viscometry; for mass density: Vibrating tube method
[2] = refractive index (Na D-line) (dimensionless); conditions: 100 kPa, Liquid, Standard Abbe refractometry
[3] = xn = mol fraction of the nth substance listed; conditions: 100 kPa, Liquid, x2 = 0; for viscosity: Concentric cylinders viscometry; for mass density: Vibrating tube method
[4] = refractive index (Na D-line) (dimensionless); xn = mol fraction of the nth substance listed; conditions: 100 kPa, Liquid, Standard Abbe refractometry, x2 = 0

CCOC(=O)CCC(=O)OCC [diethyl butanedioate]
viscosity ([1]; 288.15 K): 3.195 ± 0.03 mPa·s | mass density ([1]; 288.15 K): 1044.83 ± 0.84 kg/m3 | viscosity ([1]; 293.15 K): 2.807 ± 0.027 mPa·s | mass density ([1]; 293.15 K): 1039.63 ± 0.83 kg/m3 | viscosity ([1]; 298.15 K): 2.491 ± 0.024 mPa·s | mass density ([1]; 298.15 K): 1034.44 ± 0.83 kg/m3 | viscosity ([1]; 303.15 K): 2.229 ± 0.022 mPa·s | mass density ([1]; 303.15 K): 1029.25 ± 0.83 kg/m3 | viscosity ([1]; 308.15 K): 2.008 ± 0.02 mPa·s | mass density ([1]; 308.15 K): 1024.08 ± 0.83 kg/m3 | viscosity ([1]; 313.15 K): 1.821 ± 0.018 mPa·s | mass density ([1]; 313.15 K): 1018.9 ± 0.83 kg/m3 | viscosity ([1]; 318.15 K): 1.66 ± 0.017 mPa·s | mass density ([1]; 318.15 K): 1013.72 ± 0.83 kg/m3 | viscosity ([1]; 323.15 K): 1.523 ± 0.015 mPa·s | mass density ([1]; 323.15 K): 1008.55 ± 0.83 kg/m3 | refractive index ([2]; 288.15 K): 1.4217 ± 0.0014 | refractive index ([2]; 293.15 K): 1.4195 ± 0.0014 | refractive index ([2]; 298.15 K): 1.4173 ± 0.0014 | refractive index ([2]; 303.15 K): 1.4151 ± 0.0014 | refractive index ([2]; 308.15 K): 1.4129 ± 0.0014 | refractive index ([2]; 313.15 K): 1.4108 ± 0.0014 | refractive index ([2]; 318.15 K): 1.4088 ± 0.0014 | refractive index ([2]; 323.15 K): 1.4067 ± 0.0014

CCCCCCO [hexan-1-ol] + CCOC(=O)CCC(=O)OCC
viscosity ([3]; 288.15 K): 6.308 ± 0.058 mPa·s | mass density ([3]; 288.15 K): 822.26 ± 0.83 kg/m3 | viscosity ([3]; 293.15 K): 5.332 ± 0.05 mPa·s | mass density ([3]; 293.15 K): 818.7 ± 0.83 kg/m3 | viscosity ([3]; 298.15 K): 4.538 ± 0.042 mPa·s | mass density ([3]; 298.15 K): 815.12 ± 0.83 kg/m3 | viscosity ([3]; 303.15 K): 3.896 ± 0.037 mPa·s | mass density ([3]; 303.15 K): 811.52 ± 0.83 kg/m3 | viscosity ([3]; 308.15 K): 3.361 ± 0.032 mPa·s | mass density ([3]; 308.15 K): 807.89 ± 0.83 kg/m3 | viscosity ([3]; 313.15 K): 2.917 ± 0.028 mPa·s | mass density ([3]; 313.15 K): 804.25 ± 0.83 kg/m3 | viscosity ([3]; 318.15 K): 2.546 ± 0.024 mPa·s | mass density ([3]; 318.15 K): 800.56 ± 0.83 kg/m3 | viscosity ([3]; 323.15 K): 2.241 ± 0.022 mPa·s | mass density ([3]; 323.15 K): 796.85 ± 0.83 kg/m3 | refractive index ([4]; 288.15 K): 1.4196 ± 0.0014 | refractive index ([4]; 293.15 K): 1.4176 ± 0.0014 | refractive index ([4]; 298.15 K): 1.4156 ± 0.0014 | refractive index ([4]; 303.15 K): 1.4136 ± 0.0014 | refractive index ([4]; 308.15 K): 1.4117 ± 0.0014 | refractive index ([4]; 313.15 K): 1.4097 ± 0.0014 | refractive index ([4]; 318.15 K): 1.4078 ± 0.0014 | refractive index ([4]; 323.15 K): 1.4058 ± 0.0014

CCCO [propan-1-ol] + CCOC(=O)CCC(=O)OCC
viscosity ([3]; 288.15 K): 2.514 ± 0.022 mPa·s | mass density ([3]; 288.15 K): 807.75 ± 0.81 kg/m3 | viscosity ([3]; 293.15 K): 2.208 ± 0.019 mPa·s | mass density ([3]; 293.15 K): 803.77 ± 0.81 kg/m3 | viscosity ([3]; 298.15 K): 1.95 ± 0.017 mPa·s | mass density ([3]; 298.15 K): 799.76 ± 0.81 kg/m3 | viscosity ([3]; 303.15 K): 1.727 ± 0.015 mPa·s | mass density ([3]; 303.15 K): 795.72 ± 0.81 kg/m3 | viscosity ([3]; 308.15 K): 1.542 ± 0.014 mPa·s | mass density ([3]; 308.15 K): 791.64 ± 0.81 kg/m3 | viscosity ([3]; 313.15 K): 1.378 ± 0.013 mPa·s | mass density ([3]; 313.15 K): 787.52 ± 0.81 kg/m3 | viscosity ([3]; 318.15 K): 1.236 ± 0.012 mPa·s | mass density ([3]; 318.15 K): 783.36 ± 0.81 kg/m3 | viscosity ([3]; 323.15 K): 1.124 ± 0.011 mPa·s | mass density ([3]; 323.15 K): 779.14 ± 0.81 kg/m3 | refractive index ([4]; 288.15 K): 1.3875 ± 0.0014 | refractive index ([4]; 293.15 K): 1.3854 ± 0.0014 | refractive index ([4]; 298.15 K): 1.3834 ± 0.0014 | refractive index ([4]; 303.15 K): 1.3814 ± 0.0014 | refractive index ([4]; 308.15 K): 1.3792 ± 0.0014 | refractive index ([4]; 313.15 K): 1.377 ± 0.0014 | refractive index ([4]; 318.15 K): 1.3748 ± 0.0014 | refractive index ([4]; 323.15 K): 1.3726 ± 0.0014

CCCCO [butan-1-ol] + CCOC(=O)CCC(=O)OCC
viscosity ([3]; 288.15 K): 3.365 ± 0.028 mPa·s | mass density ([3]; 288.15 K): 813.46 ± 0.81 kg/m3 | viscosity ([3]; 293.15 K): 2.913 ± 0.025 mPa·s | mass density ([3]; 293.15 K): 809.66 ± 0.81 kg/m3 | viscosity ([3]; 298.15 K): 2.563 ± 0.022 mPa·s | mass density ([3]; 298.15 K): 805.84 ± 0.81 kg/m3 | viscosity ([3]; 303.15 K): 2.257 ± 0.019 mPa·s | mass density ([3]; 303.15 K): 801.99 ± 0.81 kg/m3 | viscosity ([3]; 308.15 K): 1.994 ± 0.017 mPa·s | mass density ([3]; 308.15 K): 798.12 ± 0.81 kg/m3 | viscosity ([3]; 313.15 K): 1.779 ± 0.016 mPa·s | mass density ([3]; 313.15 K): 794.22 ± 0.81 kg/m3 | viscosity ([3]; 318.15 K): 1.576 ± 0.014 mPa·s | mass density ([3]; 318.15 K): 790.28 ± 0.81 kg/m3 | viscosity ([3]; 323.15 K): 1.422 ± 0.013 mPa·s | mass density ([3]; 323.15 K): 786.29 ± 0.81 kg/m3 | refractive index ([4]; 288.15 K): 1.4012 ± 0.0014 | refractive index ([4]; 293.15 K): 1.3992 ± 0.0014 | refractive index ([4]; 298.15 K): 1.3972 ± 0.0014 | refractive index ([4]; 303.15 K): 1.3951 ± 0.0014 | refractive index ([4]; 308.15 K): 1.393 ± 0.0014 | refractive index ([4]; 313.15 K): 1.391 ± 0.0014 | refractive index ([4]; 318.15 K): 1.3889 ± 0.0014 | refractive index ([4]; 323.15 K): 1.3867 ± 0.0014
